The target in one assay is NC(11-55) (Human immunodeficiency virus type 1, UniProt P12493). Description: NC inhibition assay (NC-induced cTAR DNA destabilization, fluorescence). The assay is classed as biochemical, HIV-1. The following applies: for inhibition at 100 µM: single point screening, positive = >25% inhibition at 100µM. In outline: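 Doubly labelled cTAR (0.1 µM, Alexa488/Dabcyl) pre-complexed with 1 µM Zn-loaded NC(11-55) for 15 min, then compound added for a further 15 min; run at 20 °C in Tris-HCl pH 7.5, 30 mM NaCl, 0.2 mM MgCl2. Fluorescence read at ex 480/em 520 nm. IC50 taken from dose-response fit of % inhibition of NC-induced fluorescence increase.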

Assay [1] has as its target T1, full length (1-55) HIV-1 NCp7 (Human immunodeficiency virus type 1 group M subtype B, UniProt P12493).
T1 construct: recombinant full length (1-55) HIV-1 NCp7 proteins; made in house
Kind of assay: Electromobility Shift Assay (EMSA), competition for ssDNA binding. The note with it: NCp7 300 nM, M13mp18 ssDNA; positive = >25% inhibition at 100µM. In outline:
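Recombinant NL4-3 NCp7 (300 nM in the pre-mix) was combined with compound in 20 mM Tris-HCl pH 7.4, 2 mM MgCl2, 100 mM NaCl, 1 mM DTT, then M13mp18 ssDNA was added for 25 min at 37 °C. Complexes were run on 1% agarose/0.5x TBE and stained with SybrGold. IC50 is the concentration at which bound ssDNA migrated 50% of the bound–unbound distance (triplicate).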
In general terms: Mobility shift assays separate free from complexed probe on a gel.

Assay [2] concerns HIV-1 reference strain NL4-3. Kind of assay: MonoCycle assay (TZM-bl cells). In kind it is cell-based. In outline: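 TZM-bl cells (20,000/well) were infected with NL4-3 in the presence of five-fold serial inhibitor dilutions. After 48 h, cells were lysed and luciferase luminescence (RLU) was counted. IC50 was derived from the RLU data.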
Where [3] appears, read: Human immunodeficiency virus 1, NL43, TZM-bl, 48 h, read-out: Mono Cycle IC50 nM.
Where [4] appears, read: Human immunodeficiency virus 1, NL43, TZM-bl cells, NL4-3, 48 hours, read-out: Mono Cycle IC50.

The structures appear in SMILES notation. Read-outs that look alike come from different tables or passages of the source.

At NC(11-55), `O=C(NCCC1CCCCC1)c1nc(-c2ccccn2)nc(O)c1O` [Compound 6, N-(2-cyclohexylethyl)-5,6-dihydroxy-2-(pyridin-2-yl)pyrimidine-4-carboxamide] yielded an IC50 of 37.5 µM and an inhibition at 100 µM greater than 25%. Besides, the EMSA screening results in assay [1] is on record as “Positive (A compound showing >25% inhibition when tested at 100µM concentration is considered as "positive")”. The IC50 in assay [2] (setting [3]) is 4300 nM.

Consider `C[C@@H](NC(=O)c1nc(-c2cc(CCN(C)C)ccn2)nc(O)c1O)C1CCCCC1` [Compound 92, (R)-N-(1-cyclohexylethyl)-2-(4-(2-(dimethylamino)ethyl)pyridin-2-yl)-5,6-dihydroxypyrimidine-4-carboxamide], for which, at NC(11-55), the IC50 turned out to be 10 µM and the inhibition at 100 µM is greater than 25%. Also, in assay [1], the EMSA screening results is “Negative”. Also, in assay [2] (setting [3]), the IC50 turned out to be 6120 nM.

In the case of `C[C@@H](NC(=O)c1nc(-c2ccc(CNCc3ccccc3)cn2)nc(O)c1O)C1CCCCC1` [Compound 53, (R)-2-(5-((benzylamino)methyl)pyridin-2-yl)-N-(1-cyclohexylethyl)-5,6-dihydroxypyrimidine-4-carboxamide], on NC(11-55), half-maximal inhibition (IC50) required 7.5 µM and the inhibition at 100 µM was greater than 25%. For the same compound, in assay [1], the EMSA screening results is reported as “Negative”. For the same compound, the IC50 in assay [2] (setting [3]) came to 38100 nM.

For the compound `C[C@@H](NC(=O)c1nc(-c2cc(OCc3ccccc3)ccn2)nc(O)c1O)C1CCCCC1` [Compound 35, (R)-2-(4-(benzyloxy)pyridin-2-yl)-N-(1-cyclohexylethyl)-5,6-dihydroxypyrimidine-4-carboxamide], at NC(11-55), the inhibition at 100 µM is greater than 25%. In addition, the EMSA screening results in assay [1] is listed as “Positive (A compound showing >25% inhibition when tested at 100µM concentration is considered as "positive")”. Besides, in assay [2] (setting [4]), the IC50 is greater than 50000 nM.

On NC(11-55), `Cc1cccnc1-c1nc(O)c(O)c(C(=O)NCC2CCCCC2)n1` [Compound 11, N-(cyclohexylmethyl)-5,6-dihydroxy-2-(3-methylpyridin-2-yl)pyrimidine-4-carboxamide] had an IC50 of 14.3 µM and an inhibition at 100 µM greater than 25%. In assay [1], the EMSA screening results is recorded as “Negative”. The IC50 in assay [2] (setting [3]) was determined as 50000 nM.

On NC(11-55), `COc1ccnc(-c2nc(O)c(O)c(C(=O)N[C@@H](C)C3CCCCC3)n2)c1` [Compound 69, N-[(1S)-1-cyclohexylethyl]-2-(4-methoxypyridin-2-yl)-5,6-bis(oxidanyl)pyrimidine-4-carboxamide] had an IC50 of 49 µM and an inhibition at 100 µM greater than 25%. Besides, in assay [1], the EMSA screening results is “Positive (A compound showing >25% inhibition when tested at 100µM concentration is considered as "positive")”. Also, the IC50 in assay [2] (setting [3]) is greater than 50000 nM.

At NC(11-55), `C[C@@H](NC(=O)c1nc(-c2cccc(N)n2)nc(O)c1O)C1CCCCC1` [Compound 45, (R)-2-(6-aminopyridin-2-yl)-N-(1-cyclohexylethyl)-5,6-dihydroxypyrimidine-4-carboxamide] showed an IC50 of 30.5 µM and an inhibition at 100 µM greater than 25%. Besides, in assay [1], the EMSA screening results is listed as “Positive (A compound showing >25% inhibition when tested at 100µM concentration is considered as "positive")”. The IC50 in assay [2] (setting [3]) is greater than 50000 nM.

On NC(11-55), `CC1CCCCC1NC(=O)c1nc(-c2ccccn2)nc(O)c1O` (centres unmarked) [Compound 59, 5,6-dihydroxy-N-(2-methylcyclohexyl)-2-(pyridin-2-yl)pyrimidine-4-carboxamide] yielded an IC50 of 50 µM and an inhibition at 100 µM greater than 25%. Moreover, in assay [1], the EMSA screening results is recorded as “Positive (A compound showing >25% inhibition when tested at 100µM concentration is considered as "positive")”. Also, the IC50 in assay [2] (setting [3]) was greater than 50000 nM.

For the compound `Cc1cccnc1-c1nc(O)c(O)c(C(=O)N[C@H](C)C2CCCCC2)n1` [Compound 23, (R)-N-(1-cyclohexylethyl)-5,6-dihydroxy-2-(3-methylpyridin-2-yl)pyrimidine-4-carboxamide], at NC(11-55), half-maximal inhibition (IC50) was put at 20.5 µM and the inhibition at 100 µM is greater than 25%. Also, the EMSA screening results in assay [1] is reported as “Positive (A compound showing >25% inhibition when tested at 100µM concentration is considered as "positive")”. Moreover, the IC50 in assay [2] (setting [3]) worked out at 88500 nM.

At NC(11-55), `CC(NC(=O)c1nc(-c2ccccn2)nc(O)c1O)C1CCCC1` (centres unmarked) [Compound 65, N-(1-cyclopentylethyl)-5,6-dihydroxy-2-(pyridin-2-yl)pyrimidine-4-carboxamide] showed an IC50 of 47 µM and an inhibition at 100 µM greater than 25%. Besides, in assay [1], the EMSA screening results is “Positive (A compound showing >25% inhibition when tested at 100µM concentration is considered as "positive")”. Moreover, the IC50 in assay [2] (setting [3]) was greater than 50000 nM.

As to `C[C@@H](NC(=O)c1nc(-c2ccccn2)nc(O)c1O)C1CCCCC1` [Compound 5, (R)-N-(1-cyclohexylethyl)-5,6-dihydroxy-2-(pyridin-2-yl)pyrimidine-4-carboxamide], on NC(11-55), the 50% inhibitory concentration (IC50) was 42.5 µM and the inhibition at 100 µM was greater than 25%. Further, the EMSA screening results in assay [1] was “Positive (A compound showing >25% inhibition when tested at 100µM concentration is considered as "positive")”. For the same compound, the IC50 in assay [2] (setting [3]) is 2490 nM.

For `CC(=O)Nc1ccc(-c2nc(O)c(O)c(C(=O)N[C@H](C)C3CCCCC3)n2)nc1` [Compound 62, (R)-2-(5-acetamidopyridin-2-yl)-N-(1-cyclohexylethyl)-5,6-dihydroxypyrimidine-4-carboxamide], on NC(11-55), the IC50 amounted to 15.5 µM and the inhibition at 100 µM is greater than 25%. In assay [1], the EMSA screening results was “Positive (A compound showing >25% inhibition when tested at 100µM concentration is considered as "positive")”. Further, the IC50 in assay [2] (setting [3]) is greater than 50000 nM.

On to `C[C@@H](NC(=O)c1nc(-c2ccc(N)cn2)nc(O)c1O)C1CCCCC1` [Compound 20, (R)-2-(5-aminopyridin-2-yl)-N-(1-cyclohexylethyl)-5,6-dihydroxypyrimidine-4-carboxamide], for which the IC50 came out at 3 µM at NC(11-55) and 2110 nM in assay [2] (setting [3]). Further, on NC(11-55), the inhibition at 100 µM was greater than 25%. In assay [1], the EMSA screening results was “Positive (A compound showing >25% inhibition when tested at 100µM concentration is considered as "positive")”.

On to `O=C(NCC1CCCCC1)c1nc(-c2ncccc2Cl)nc(O)c1O` [Compound 16, 2-(3-chloropyridin-2-yl)-N-(cyclohexylmethyl)-5,6-dihydroxypyrimidine-4-carboxamide], for which, on NC(11-55), the inhibition at 100 µM was greater than 25%. In assay [1], the EMSA screening results was “Positive (A compound showing >25% inhibition when tested at 100µM concentration is considered as "positive")”. In assay [2] (setting [4]), the IC50 came out at 51100 nM.

With `C[C@H](NC(=O)c1nc(-c2cc(Cl)ccn2)nc(O)c1O)C1CCCCC1` [Compound 78, (S)-2-(4-chloropyridin-2-yl)-N-(1-cyclohexylethyl)-5,6-dihydroxypyrimidine-4-carboxamide], on NC(11-55), the IC50 worked out at 18 µM and the inhibition at 100 µM was greater than 25%. Besides, the EMSA screening results in assay [1] is “Positive (A compound showing >25% inhibition when tested at 100µM concentration is considered as "positive")”. The IC50 in assay [2] (setting [3]) was 8740 nM.

As for `C[C@@H](NC(=O)c1nc(-c2cc(Cl)ccn2)nc(O)c1O)C1CCCCC1` [Compound 26, (R)-2-(4-chloropyridin-2-yl)-N-(1-cyclohexylethyl)-5,6-dihydroxypyrimidine-4-carboxamide], the IC50 turned out to be 1.5 µM against NC(11-55) and 17600 nM in assay [2] (setting [3]). The inhibition at 100 µM against NC(11-55) is greater than 25%. Besides, the EMSA screening results in assay [1] was “Positive (A compound showing >25% inhibition when tested at 100µM concentration is considered as "positive")”.

Usually IC50 stands for the concentration at which inhibition is half-maximal. Broadly, the inhibition is the share of the control response that was lost under treatment. Low readings indicate a response near the control, high ones a response far below the control.

Source of the values: EP3290412A1, “HIV-1 NUCLEOCAPSID INHIBITORS” (Università degli Studi di Siena, priority 2016, dated 2018).
